Measured values published in patent US10829501B2 (BRISTOL-MYERS SQUIBB COMPANY, priority 2016, dated 2020).

Molecular target: ROCK2 (Homo sapiens, UniProt O75116)
Experiment: ROCK2 kinase inhibition assay (LABCHIP 3000 Reader, FITC peptide substrate);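 also: rho kinase reaction read by separating phosphorylated from unphosphorylated peptide on chip, with inhibition of kinase activity computed per concentration across a dose-response series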

Chain of ROCK2 (O75116 whole entry, species assumed): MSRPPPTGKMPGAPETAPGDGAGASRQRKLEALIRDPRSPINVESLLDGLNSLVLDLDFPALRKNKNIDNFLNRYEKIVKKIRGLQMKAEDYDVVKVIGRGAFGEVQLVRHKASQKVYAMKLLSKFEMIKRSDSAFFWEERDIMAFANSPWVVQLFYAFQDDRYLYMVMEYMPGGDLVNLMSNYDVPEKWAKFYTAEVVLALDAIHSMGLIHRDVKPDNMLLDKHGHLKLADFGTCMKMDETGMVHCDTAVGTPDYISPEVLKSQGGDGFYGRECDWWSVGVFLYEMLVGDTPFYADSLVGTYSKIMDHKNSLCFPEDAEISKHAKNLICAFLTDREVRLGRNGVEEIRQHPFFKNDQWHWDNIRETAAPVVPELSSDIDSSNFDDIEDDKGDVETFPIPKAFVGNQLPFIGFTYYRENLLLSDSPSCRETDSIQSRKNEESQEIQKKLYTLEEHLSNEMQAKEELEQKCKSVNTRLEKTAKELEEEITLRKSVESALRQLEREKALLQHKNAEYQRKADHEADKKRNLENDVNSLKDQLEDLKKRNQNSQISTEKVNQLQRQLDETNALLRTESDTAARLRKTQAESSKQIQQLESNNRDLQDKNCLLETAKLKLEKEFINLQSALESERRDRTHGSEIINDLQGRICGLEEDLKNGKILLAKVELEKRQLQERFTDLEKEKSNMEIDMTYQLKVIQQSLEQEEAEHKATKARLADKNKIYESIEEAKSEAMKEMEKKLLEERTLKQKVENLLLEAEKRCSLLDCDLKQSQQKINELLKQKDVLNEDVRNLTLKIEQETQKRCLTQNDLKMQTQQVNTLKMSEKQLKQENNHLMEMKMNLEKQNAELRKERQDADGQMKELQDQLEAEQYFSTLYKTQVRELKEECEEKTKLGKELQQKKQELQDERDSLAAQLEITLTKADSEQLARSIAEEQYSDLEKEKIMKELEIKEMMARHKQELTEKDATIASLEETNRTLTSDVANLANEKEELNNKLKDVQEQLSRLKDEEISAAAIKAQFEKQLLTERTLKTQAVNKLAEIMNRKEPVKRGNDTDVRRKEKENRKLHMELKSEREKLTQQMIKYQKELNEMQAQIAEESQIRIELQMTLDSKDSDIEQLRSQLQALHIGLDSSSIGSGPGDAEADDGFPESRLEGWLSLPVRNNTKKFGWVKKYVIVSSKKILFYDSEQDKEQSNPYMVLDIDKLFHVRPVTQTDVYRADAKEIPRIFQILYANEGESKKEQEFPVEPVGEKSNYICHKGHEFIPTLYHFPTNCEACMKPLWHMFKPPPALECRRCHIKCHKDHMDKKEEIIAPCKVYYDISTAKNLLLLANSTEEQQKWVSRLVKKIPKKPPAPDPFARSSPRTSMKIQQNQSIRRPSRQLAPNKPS

| SMILES | IC50 [nM] |
| --- | --- |
| CC(C)(O)COc1ccc2c(C(=O)N[C@H]3CC4(C3)C[C@H](Oc3ccccc3C(N)=O)C4)cnn2c1CCC(F)(F)F (stereo partly drawn) [Example 19, N-[(aR)-6-(2-carbamoylphenoxy)spiro[3.3]heptan-2-yl]-6-(2-hydroxy-2-methylpropoxy)-7-(3,3,3-trifluoropropyl)pyrazolo [1,5-a]pyridine-3-carboxamide] | < 5 |
| NC(=O)c1ccccc1O[C@H]1CC2(C[C@H](NC(=O)c3cnn4ccc(OCCN5CCOCC5)cc34)C2)C1 (stereo partly drawn) [Example 20, N-[(aR)-6-(2-carbamoylphenoxy)spiro[3.3]heptan-2-yl]-5-[2-(morpholin-4-yl)ethoxy]pyrazolo[1,5-a]pyridine-3-carboxamide] | 5 to 50 |
| NC(=O)c1ccccc1O[C@H]1CC2(C[C@H](NC(=O)c3cnn4cc(OCCN5CCCC5)ccc34)C2)C1 (stereo partly drawn) [Example 21, N-[(aR)-6-(2-carbamoylphenoxy)spiro[3.3]heptan-2-yl]-6-[2-(pyrrolidin-1-yl)ethoxy]pyrazolo[1,5-a]pyridine-3-carboxamide] | 5 to 50 |
| NC(=O)c1ccccc1O[C@H]1CC2(C[C@H](NC(=O)c3cnn4cc(OCC(F)F)ccc34)C2)C1 (stereo partly drawn) [Example 22, N-[(aR)-6-(2-carbamoylphenoxy)spiro[3.3]heptan-2-yl]-6-(2,2-difluoroethoxy)pyrazolo [1,5-a]pyridine-3-carboxamide] | 5 to 50 |
| NC(=O)c1ccccc1O[C@H]1CC2(C[C@H](NC(=O)c3cnc4cc(OCCN5CCCC5)ccn34)C2)C1 (stereo partly drawn) [Example 26, N-((aR)-6-(2-carbamoylphenoxy)spiro[3.3]heptan-2-yl)-7-(2-(pyrrolidin-1-yl)ethoxy)imidazo[1,2-a]pyridine-3-carboxamdie] | 5 to 50 |
| NC(=O)c1ccccc1OC1CC2(CC(NC(=O)c3cnn4c(C5CC5)c(OCCC(F)(F)F)ccc34)C2)C1 [Example 32, N-[(aR)-6-(2-carbamoylphenoxy)spiro [3.3]heptan-2-yl]-7-cyclopropyl-6-(3,3,3-trifluoropropoxy)pyrazolo [1,5-a]pyridine-3-carboxamide] | < 5 |
| NC(=O)c1ccccc1O[C@H]1CC2(C[C@H](NC(=O)c3cnn4cc(OCCC(F)(F)F)ccc34)C2)C1 (stereo partly drawn) [Example 33, N-[(aR)-6-(2-carbamoylphenoxy)spiro [3.3]heptan-2-yl]-6-(3,3,3-trifluoropropoxy) pyrazolo[1,5-a]pyridine-3-carboxamide] | < 5 |
| NC(=O)c1ccccc1OC1CC2(CC(NC(=O)c3cnn4c(C5CC5)c(OC5CCS(=O)(=O)CC5)ccc34)C2)C1 [Example 35, N-[(aR)-6-(2-carbamoylphenoxy)spiro [3.3]heptan-2-yl]-7-cyclopropyl-6-[(1,1-dioxo-1λ^6-thian-4-yl)oxy]pyrazolo[1,5-a] pyridine-3-carboxamide] | < 5 |
| [H][C@]1(Oc2ncccc2C(N)=O)C[C@@]2(C[C@H](NC(=O)c3cnn4c(C5CC5)c(OCC(C)(C)O)ccc34)C2)C1 (stereo partly drawn) [Example 42, N-((aR)-6-((3-carbamoylpyridin-2-yl)oxy)spiro[3.3]heptan-2-yl)-7-cyclopropyl-6-(2-hydroxy-2-methylpropoxy)pyrazolo[1,5-a]pyridine-3-carboxamide] | < 5 |
| [H][C@]1(Oc2ncccc2C(N)=O)C[C@@]2(C[C@H](NC(=O)c3cnn4c(CCC(F)(F)F)c(OCC(C)(C)O)ccc34)C2)C1 (stereo partly drawn) [Example 43, N-((aR)-6-((3-carbamoylpyridin-2-yl)oxy)spiro[3.3]heptan-2-yl)-6-(2-hydroxy-2-methylpropoxy)-7-(3,3,3-trifluoropropyl)pyrazolo[1,5-a]pyridine-3-carboxamide] | < 5 |
| [H][C@]1(Oc2ccncc2C(N)=O)C[C@@]2(C[C@H](NC(=O)c3cnn4cc(OCC(C)(C)O)ccc34)C2)C1 (stereo partly drawn) [Example 44, N-((aR)-6-((3-carbamoylpyridin-4-yl)oxy)spiro[3.3]heptan-2-yl)-6-(2-hydroxy-2-methylpropoxy)pyrazolo[1,5-a]pyridine-3-carboxamide] | 250 to 2500 |
| [H][C@]1(Oc2cnccc2C(N)=O)C[C@@]2(C[C@H](NC(=O)c3cnn4cc(OCC(C)(C)O)ccc34)C2)C1 (stereo partly drawn) [Example 45, N-((aR)-6-((4-carbamoylpyridin-3-yl)oxy)spiro[3.3]heptan-2-yl)-6-(2-hydroxy-2-methylpropoxy)pyrazolo[1,5-a]pyridine-3-carboxamide] | 50 to 250 |
| [H][C@]1(Oc2ncccc2C(N)=O)C[C@@]2(C[C@H](NC(=O)c3nn(CC(C)(C)O)c4cc(-c5cnn(C)c5)ccc34)C2)C1 (stereo partly drawn) [Example 46, N-((aR)-6-((3-carbamoylpyridin-2-yl)oxy)spiro[3.3]heptan-2-yl)-1-(2-hydroxy-2-methylpropyl)-6-(1-methyl-1H-pyrazol-4-yl)-1H-indazole-3-carboxamide] | < 5 |
| [H][C@]1(Oc2ncccc2C(N)=O)C[C@@]2(C[C@H](NC(=O)c3cnc4c(C5CC5)c(OCC(C)(C)F)ccn34)C2)C1 (stereo partly drawn) [Example 47, N-((aR)-6-((3-carbamoylpyridin-2-yl)oxy)spiro[3.3]heptan-2-yl)-8-cyclopropyl-7-(2-fluoro-2-methylpropoxy)imidazo[1,2-a]pyridine-3-carboxamide] | 5 to 50 |
| CC(C)(O)COc1ccc2c(C(=O)N[C@H]3CC4(C3)C[C@H](Oc3nnccc3C(N)=O)C4)cnn2c1 (stereo partly drawn) [Example 48, N-((aR)-6-((4-carbamoylpyridazin-3-yl)oxy)spiro[3.3]heptan-2-yl)-6-(2-hydroxy-2-methylpropoxy)pyrazolo[1,5-a]pyridine-3-carboxamide] | 50 to 250 |

Results, then the compound that gave them:

| IC50 [nM] | SMILES |
| --- | --- |
| < 5 | NC(=O)c1ccccc1O[C@H]1CC2(C[C@H](NC(=O)c3cnn4cc(N5CCC(F)(F)C5)ccc34)C2)C1 (stereo partly drawn) [Example 23, N-[(aR)-6-(2-carbamoylphenoxy)spiro[3.3]heptan-2-yl]-6-(3,3-difluoropyrrolidin-1-yl)pyrazolo[1,5-a]pyridine-3-carboxamide] |
| 5 to 50 | NC(=O)c1ccccc1O[C@H]1CC2(C[C@H](NC(=O)c3cnn4cc(OC(F)F)ccc34)C2)C1 (stereo partly drawn) [Example 24, N-[(aR)-6-(2-carbamoylphenoxy)spiro[3.3]heptan-2-yl]-6-(difluoromethoxy)pyrazolo [1,5-a]pyridine-3-carboxamide] |
| < 5 | NC(=O)c1ccccc1O[C@H]1CC2(C[C@H](NC(=O)c3cnc4cc(N5CCC(F)(F)C5)ccn34)C2)C1 (stereo partly drawn) [Example 25, N-[(aR)-6-(2-carbamoylphenoxy)spiro[3.3]heptan-2-yl)-7-(3,3-difluoropyrrolidin-1-yl)imidazo[1,2-a]pyridine-3-carboxamide] |
| 5 to 50 | COC(=O)N1CC(Oc2ccc3c(C(=O)N[C@H]4CC5(C4)C[C@H](Oc4ccccc4C(N)=O)C5)cnn3c2)C1 (stereo partly drawn) [Example 27, methyl 3-((3-(((aR)-6-(2-carbamoylphenoxy)spiro[3.3]heptan-2-yl)carbamoyl)pyrazolo[1,5-a]pyridin-6-yl)oxy)azetidine-1-carboxylate] |
| < 5 | NC(=O)c1ccccc1O[C@H]1CC2(C[C@H](NC(=O)c3cnn4cc(OC5CCS(=O)(=O)CC5)ccc34)C2)C1 (stereo partly drawn) [Example 28, N-[(aR)-6-(2-carbamoylphenoxy)spiro [3.3]heptan-2-yl]-6-[(1,1-dioxo-1λ^6-thian-4-yl)oxy]pyrazolo [1,5-a]pyridine-3-carboxamide] |
| 5 to 50 | NC(=O)c1ccccc1O[C@H]1CC2(C[C@H](NC(=O)c3cnc4cc(N5CCOCC5)ccn34)C2)C1 (stereo partly drawn) [Example 29, N-[(aR)-6-(2-carbamoylphenoxy)spiro [3.3]heptan-2-yl]-7-(morpholin-4-yl)imidazo[1,2-a]pyridine-3-carboxamide] |
| < 5 | CS(=O)(=O)CCCOc1ccc2c(C(=O)NC3CC4(C3)CC(Oc3ccccc3C(N)=O)C4)cnn2c1C1CC1 [Example 30, N-[(aR)-6-(2-carbamoylphenoxy)spiro [3.3]heptan-2-yl]-7-cyclopropyl-6-(3-methanesulfonylpropoxy) pyrazolo[1,5-a] pyridine-3-carboxamide] |
| 5 to 50 | NC(=O)c1ccccc1O[C@H]1CC2(C[C@H](NC(=O)c3cnn4c(C5CC5)c(OCCO)ccc34)C2)C1 (stereo partly drawn) [Example 31, N-[(aR)-6-(2-carbamoylphenoxy)spiro [3.3]heptan-2-yl]-7-cyclopropyl-6-(2-hydroxyethoxy)pyrazolo[1,5-a]pyridine-3-carboxamide] |
| 5 to 50 | Cn1cc(-c2ccn3c(C(=O)N[C@H]4CC5(C4)C[C@H](Oc4ccccc4C(N)=O)C5)cnc3c2)cn1 (stereo partly drawn) [Example 34, N-[(aR)-6-(2-carbamoylphenoxy)spiro [3.3]heptan-2-yl]-7-(1-methyl-1H-pyrazol-4-yl)imidazo [1,2-a]pyridine-3-carboxamide] |
| 5 to 50 | CN1CCN(c2ccn3c(C(=O)N[C@H]4CC5(C4)C[C@H](Oc4ccccc4C(N)=O)C5)cnc3c2)CC1 (stereo partly drawn) [Example 36, N-[(aR)-6-(2-carbamoylphenoxy)spiro [3.3]heptan-2-yl]-7-(4-methylpiperazin-1-yl)imidazo[1,2-a] pyridine-3-carboxamdie] |
| 50 to 250 | NC(=O)c1ccccc1O[C@H]1CC2(C[C@H](NC(=O)N3CCc4ccccc43)C2)C1 (stereo partly drawn) [Example 37, N-((aR)-6-(2-carbamoylphenoxy)spiro[3.3]heptan-2-yl)indoline-1-carboxamide] |
| 5 to 50 | COc1ccc2c(c1)CCN2C(=O)N[C@H]1CC2(C1)C[C@H](Oc1ccccc1C(N)=O)C2 (stereo partly drawn) [Example 38, N-[(aR)-6-(2-carbamoylphenoxy)spiro [3.3]heptan-2-yl]-5-methoxy-2,3-dihydro-1H-indole-1-carboxamide] |
| 50 to 250 | CS(=O)(=O)c1ccc2c(c1)CCN2C(=O)N[C@H]1CC2(C1)C[C@H](Oc1ccccc1C(N)=O)C2 (stereo partly drawn) [Example 39, N-[(aR)-6-(2-carbamoylphenoxy)spiro [3.3]heptan-2-yl]-5-methanesulfonyl-2,3-dihydro-1H-indole-1-carboxamide] |
| 50 to 250 | COc1ccc(NC(=O)N[C@H]2CC3(C2)C[C@H](Oc2ccccc2C(N)=O)C3)cc1 (stereo partly drawn) [Example 40, 2-[((aR)-6-{[(4-methoxyphenyl)carbamoyl]amino}spiro[3.3]heptan-2-yl)oxy]benzamide] |
| 50 to 250 | NC(=O)c1ccccc1O[C@H]1CC2(C[C@H](NC(=O)N3Cc4ccccc4C3)C2)C1 (stereo partly drawn) [Example 41, N-[(aR)-6-(2-carbamoylphenoxy)spiro [3.3]heptan-2-yl]-2,3-dihydro-1H-isoindole-2-carboxamide] |
